Data: paper PMC6825211 (Nature Communications, 2019)
Values joined by “and” are separate entries in the source; they are usually repeats but may differ in a detail not shown here. Equal entries are not always repeated.

Tests used:
[1] = system: MLD–STZ C57BL/6J mice; assay: MLD–STZ model: β-cell mass; assay type: in vivo, mouse; set-up: BCM: unit not given here
Protocol: C57Bl/6J mice were injected with 40 mg/kg streptozotocin or citrate buffer for 5 consecutive days. […] In d, basal glucose values were normalized to 100%. e Insulin secretion measured from retro-orbital blood draw during an ipGTT measured before (0 min) and 15 min after glucose injection; data are expressed as the ratio of secreted insulin at 15 min/0 min (stimulatory index). f The ratio of secreted insulin and glucose is calculated at fed state. g–i Mice were killed at day 35. g β-cell mass (given as percentage of the whole pancreatic section from ten sections spanning the width of the pancreas) and quantitative analyses from triple staining for h TUNEL or i Ki67, insulin, and DAPI expressed as percentage of TUNEL- or Ki67-positive β-cells ±SEM. An average number of 2331 (h), or 26369 (i) β-cells were counted. n = 9 mice/group for (a); n = 4–12 for (b); n = 5–15 for (c) and (d); n = 12–19 for (e); n = 8–14 for (f); n = 4–9 for (g); n = 4–11 for (h); and n = 6–11 mice/groupfor (i); all from three independent experiments).
For morphometric data, ten sections (spanning the width of the pancreas) per mouse were analyzed. Pancreatic tissue area and insulin-positive area were determined by computer-assisted measurements by using a Nikon MEA53200 (Nikon GmbH, Dusseldorf, Germany) microscope, and images were acquired by using NIS-Elements software (Nikon). β-cell mass was obtained by multiplying the β-cell fraction by the weight of the pancreas.

[2] = system: MST family members; set-up: method as in PMID 22037378; details: cited from earlier work
[3] = target: FLT-3 (Homo sapiens, UniProt P36888); assay: Nanosyn kinase profiling, mobility shift assay; details: read-out: % inhibition by neratinib
Sequence of FLT-3 (P36888 27-993): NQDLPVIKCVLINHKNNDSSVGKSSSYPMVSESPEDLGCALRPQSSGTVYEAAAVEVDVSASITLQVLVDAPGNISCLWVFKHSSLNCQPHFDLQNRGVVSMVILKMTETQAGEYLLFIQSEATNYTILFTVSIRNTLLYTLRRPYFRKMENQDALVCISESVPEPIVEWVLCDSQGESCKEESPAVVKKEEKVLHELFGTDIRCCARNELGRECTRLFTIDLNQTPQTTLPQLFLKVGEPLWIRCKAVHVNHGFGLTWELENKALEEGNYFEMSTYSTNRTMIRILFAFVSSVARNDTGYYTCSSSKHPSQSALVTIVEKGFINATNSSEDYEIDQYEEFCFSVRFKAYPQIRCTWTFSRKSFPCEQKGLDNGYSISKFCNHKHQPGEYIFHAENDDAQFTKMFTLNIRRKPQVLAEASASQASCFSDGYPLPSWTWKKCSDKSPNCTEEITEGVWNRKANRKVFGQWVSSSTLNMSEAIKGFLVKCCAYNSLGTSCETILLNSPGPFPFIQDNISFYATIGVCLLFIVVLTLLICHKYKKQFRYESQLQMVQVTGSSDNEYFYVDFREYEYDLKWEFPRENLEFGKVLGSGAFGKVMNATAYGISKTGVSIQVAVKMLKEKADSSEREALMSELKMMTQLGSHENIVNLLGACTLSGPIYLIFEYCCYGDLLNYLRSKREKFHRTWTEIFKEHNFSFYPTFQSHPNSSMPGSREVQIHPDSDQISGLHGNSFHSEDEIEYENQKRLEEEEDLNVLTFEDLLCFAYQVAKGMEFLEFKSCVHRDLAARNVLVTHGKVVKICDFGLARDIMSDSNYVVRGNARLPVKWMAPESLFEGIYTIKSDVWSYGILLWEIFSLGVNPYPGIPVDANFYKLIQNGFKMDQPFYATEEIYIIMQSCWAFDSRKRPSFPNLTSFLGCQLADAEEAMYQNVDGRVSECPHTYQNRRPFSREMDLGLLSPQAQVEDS

[4] = MALDI imaging mass spectrometry of pancreas sections; assay type: in vivo, mouse
Protocol: MALDI imaging mass spectrometry (MALDI imaging MS) was performed on pancreas, liver, colon, stomach, kidney, heart, and brain tissue sections from WT C57BL/6J and db/db mice in triplicates. […] For MALDI imaging MS, 10-µm cryo sections were cut with a cryo-microtome (CM1860, Leica Biosystems, Nussloch, Germany) and mounted on indium–tin-coated conductive glass slides (Bruker Daltonics, Bremen, Germany). The matrix (HCCA in 50% ACN, 0.5% TFA) was applied with the ImagePrep Device (Bruker Daltonics), and MALDI spectra were recorded by using a Bruker autofleX speed mass spectrometer in positive reflector mode with a mass range of 400–1400 m/z. A large-size laser diameter was used with a lateral resolution of 100 µm, and 500 laser shots per pixel were accumulated with the random walk option set to 100 shots per position. […] Standards were spotted on mice liver cryo-sections and the spectral intensity was plotted.

[5] = target: SGK1 (Homo sapiens, UniProt O00141); assay: Nanosyn kinase profiling, mobility shift assay; details: read-out: % inhibition by neratinib
Sequence of SGK1 (O00141 whole entry): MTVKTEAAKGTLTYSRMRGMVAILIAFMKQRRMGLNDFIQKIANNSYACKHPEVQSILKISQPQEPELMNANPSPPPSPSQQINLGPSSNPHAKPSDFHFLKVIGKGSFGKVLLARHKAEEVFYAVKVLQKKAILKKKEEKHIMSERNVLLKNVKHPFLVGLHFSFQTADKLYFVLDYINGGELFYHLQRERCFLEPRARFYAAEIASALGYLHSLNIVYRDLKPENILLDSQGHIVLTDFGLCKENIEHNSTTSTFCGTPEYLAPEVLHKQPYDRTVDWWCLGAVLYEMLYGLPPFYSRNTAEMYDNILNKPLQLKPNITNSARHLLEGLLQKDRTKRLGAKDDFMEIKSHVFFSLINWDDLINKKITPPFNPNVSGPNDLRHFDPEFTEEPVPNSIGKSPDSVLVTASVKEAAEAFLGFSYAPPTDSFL

[6] = target: TYK2 (Homo sapiens, UniProt P29597); assay: Nanosyn kinase profiling, mobility shift assay; details: read-out: % inhibition by neratinib
Sequence of TYK2 (P29597 whole entry): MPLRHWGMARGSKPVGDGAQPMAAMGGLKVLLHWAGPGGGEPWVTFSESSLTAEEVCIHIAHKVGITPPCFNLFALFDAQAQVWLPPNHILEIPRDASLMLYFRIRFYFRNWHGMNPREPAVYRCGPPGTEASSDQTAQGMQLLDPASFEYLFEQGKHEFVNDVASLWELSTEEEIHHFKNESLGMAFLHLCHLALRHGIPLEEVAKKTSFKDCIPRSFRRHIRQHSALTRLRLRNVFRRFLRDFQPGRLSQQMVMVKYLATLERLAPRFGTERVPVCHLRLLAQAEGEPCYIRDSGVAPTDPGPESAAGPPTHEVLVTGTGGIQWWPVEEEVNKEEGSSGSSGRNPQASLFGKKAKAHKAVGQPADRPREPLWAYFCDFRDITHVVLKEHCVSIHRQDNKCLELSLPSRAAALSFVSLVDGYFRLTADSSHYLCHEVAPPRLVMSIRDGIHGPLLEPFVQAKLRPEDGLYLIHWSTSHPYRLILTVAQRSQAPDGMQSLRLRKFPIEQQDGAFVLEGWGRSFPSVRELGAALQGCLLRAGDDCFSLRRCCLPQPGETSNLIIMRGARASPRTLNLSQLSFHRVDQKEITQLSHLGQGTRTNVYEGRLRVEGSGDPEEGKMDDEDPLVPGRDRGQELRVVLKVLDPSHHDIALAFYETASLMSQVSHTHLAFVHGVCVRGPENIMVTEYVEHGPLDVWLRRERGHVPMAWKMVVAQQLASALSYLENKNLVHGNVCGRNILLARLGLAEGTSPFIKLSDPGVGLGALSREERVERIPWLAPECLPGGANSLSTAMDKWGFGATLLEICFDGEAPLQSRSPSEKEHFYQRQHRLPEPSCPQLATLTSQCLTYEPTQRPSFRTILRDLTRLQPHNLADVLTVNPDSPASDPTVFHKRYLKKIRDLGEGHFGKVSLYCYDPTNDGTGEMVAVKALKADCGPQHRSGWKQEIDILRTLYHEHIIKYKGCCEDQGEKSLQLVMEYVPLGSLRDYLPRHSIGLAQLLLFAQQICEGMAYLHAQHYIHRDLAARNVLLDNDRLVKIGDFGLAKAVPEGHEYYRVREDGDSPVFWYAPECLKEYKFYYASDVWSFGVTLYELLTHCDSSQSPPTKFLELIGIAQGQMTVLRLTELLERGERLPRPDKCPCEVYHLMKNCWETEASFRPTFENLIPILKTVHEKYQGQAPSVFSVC

[7] = clinical trials; cited from earlier work
[8] = system: INS-1E cells; assay: Western blot of pMST1, caspase-3/PARP cleavage, PDX1, BIM under diabetogenic conditions; assay type: cell-based, rat
Protocol: . pThr183), caspase-3 and PARP cleavage, PDX1, tubulin, and actin were analyzed by western blotting. Representative Western blots and pooled quantitative densitometry analysis are shown from three independent cell line experiments (n = 3). […]; all by Student’s t tests.
. pThr183), caspase-3 and PARP cleavage, and BIM and actin were analyzed by western blotting. Representative Western blots (b) and pooled quantitative densitometry analysis (c) are shown from 3–6 independent culture dishes (n = 3–6). […]; all by Student’s t tests.
Human islets were isolated from eight pancreases of nondiabetic organ donors at PRODO Labs and at Lille University and cultured on extracellular matrix-coated dishes (Novamed, Jerusalem, Israel)[62] or on Biocoat Collagen I coated dishes (#356400, Corning, ME, USA). […] The clonal rat β-cell line INS-1E was kindly provided by Dr. Claes Wollheim, Geneva & Lund University. Human islets were cultured in complete CMRL-1066 (Invitrogen) medium at 5.5 mM glucose, mouse islets and INS-1E cells at complete RPMI-1640 medium at 11.1 mM glucose. […] . Palmitic acid (Sigma) was dissolved at 10 mmol/l in RPMI-1640 medium containing 11% fatty acid–free bovine serum albumin (BSA) (Sigma) under an N2-atmosphere and added to the culture at 0.5 mM[64]. […] . Isolated human islets or INS-1E cells were infected with adenovirus carrying LacZ as control or MST1 or LATS2 (all Vector Biolabs), at a multiplicity of infection of 100 (human islets) or 20 (INS-1E) for 4 h[11]. Adenovirus was subsequently washed off with PBS and replaced by fresh medium with 10% FBS and the respective analysis performed after 48 h post infection.

[9] = system: obese diabetic Lepr db/db mice; assay: db/db model: ipGTT; assay type: in vivo, mouse; set-up: AUC ipGTT: unit not given beside the values
Description: Data are representative of six mice per group (n = 6 for (a–f)). g–j Mice were killed at day 31. g β-cell mass (given as percentage of the whole pancreatic section from ten sections spanning the width of the pancreas; n = 5 mice/group) and quantitative analyses from triple stainings for (h) TUNEL, (i) Ki67, (j) pHH3, and (k) nuclear PDX1 expression, insulin, and DAPI expressed as percentage of TUNEL-, Ki67-, pHH3-, or nuclear PDX1-positive β-cells ± SEM. An average number of 13667 (h), 5937 (i), 7108 (j), or 4330 (k) β-cells were counted from n = 3–5 (h, i, k) or n = 5–6 (j) mice/group.
For intraperitoneal glucose tolerance tests, mice were fasted 12 h overnight and injected i.p. with glucose (40%; B.Braun, Melsungen, Germany) at a dose of 1 g/kg body weight. Blood samples were obtained at time points 0, 15, 30, 60, 90, and 120 min for glucose measurements by using a Glucometer. For i.p. insulin tolerance tests, mice were injected with 0.75 U/kg body weight recombinant human insulin (Novolin, Novo Nordisk) after 4–5-h fasting, and glucose concentration was determined with the Glucometer. Insulin secretion was measured before (0 min) and after (15 and 30 min) i.p. injection of glucose (2 g/kg) and measured by using ultrasensitive mouse Elisa kit (ALPCO Diagnostics, Salem, NH).

[10] = target: T1, MST1 (Rattus norvegicus, UniProt A0A8I6A0F8); assay: CETSA assay; assay type: cell-based; details: 5 μM, 2 h, INS-1E, 55 °C
T1 construct: endogenous in cells; host or cells: INS-1E (rat beta-cell line)
T1 sequence (A0A8I6A0F8 1-487): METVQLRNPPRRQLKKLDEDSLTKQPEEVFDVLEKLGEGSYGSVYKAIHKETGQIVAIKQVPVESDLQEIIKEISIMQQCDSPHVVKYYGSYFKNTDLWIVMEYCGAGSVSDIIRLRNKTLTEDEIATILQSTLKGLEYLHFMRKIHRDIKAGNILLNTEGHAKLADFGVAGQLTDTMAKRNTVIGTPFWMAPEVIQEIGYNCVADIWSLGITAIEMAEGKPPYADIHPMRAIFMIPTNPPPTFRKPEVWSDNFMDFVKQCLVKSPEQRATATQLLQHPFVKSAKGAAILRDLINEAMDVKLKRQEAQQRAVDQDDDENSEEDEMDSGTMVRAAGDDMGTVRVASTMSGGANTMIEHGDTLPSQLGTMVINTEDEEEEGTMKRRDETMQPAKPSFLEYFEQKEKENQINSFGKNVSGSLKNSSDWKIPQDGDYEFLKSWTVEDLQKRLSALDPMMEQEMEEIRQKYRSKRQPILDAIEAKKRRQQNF
Protocol: Thereafter, cells were pelleted at 200 g for 4 min and resuspended in PBS supplemented with phosphatase and protease inhibitor cocktail at the cell density of 3 Mill./100 µl. Each cell suspension was distributed into five 0.2-ml PCR tubes with 100 µl of cell suspension per tube. PCR tubes were heated at their designated temperature (43–55 °C) on a thermal cycler for 3 min, incubated at room temperature for 3 min, and snap-frozen in liquid nitrogen. Cell lysates were prepared by freezing–thawing the samples in liquid nitrogen twice, and soluble MST1 was detected by western blot analysis.

SMILES: CCOc1cc2ncc(C#N)c(Nc3ccc(OCc4ccccn4)c(Cl)c3)c2cc1NC(=O)/C=C/CN(C)C [neratinib]
- BCM ([1]; NeraCtr group (no STZ), MEAN): 1.179
- BCM ([1]; NeraCtr group (no STZ), individual mice): 1.212 and 1.511 and 1.035 and 0.9571
- BCM ([1]; NeraSTZ group, MEAN): 0.6212
- BCM ([1]; NeraSTZ group, individual mice): 1.314 and 0.4366 and 0.7768 and 0.269 and 0.7149 and 0.2555 and 0.5691 and 0.3836 and 0.8706
- β-cell mass ([1]; STZ mice, day 35): restored β-cell mass
- activity on MST family members [2]: potent activity
- inhibition at 10 µM [3]: 47%
- neratinib in pancreatic tissue ([4]; WT mice, 4 h after i.p. injection): clearly detected
- neratinib signal in pancreas tissue sections ([4]; db/db mice, 4-week daily i.p. injection): specific signal was obtained
- inhibition at 10 µM [5]: 28%
- inhibition at 10 µM [6]: 15%
- most common neratinib-associated adverse events [7]: diarrhea, vomiting, and nausea
- PDX1 expression reduced by elevated glucose ([8]; 22.2 mM glucose, 72 h): restored PDX1 expression
- H2O2- and high glucose/palmitate-induced MST1 activation and apoptosis (caspase-3 and PARP cleavage) ([8]; 72 h): potently inhibited
- mitochondrial BIM induction under diabetic conditions ([8]; HG/Pal, 10 μM, 24 h): significantly reduced
- stress-induced MST1 activation and caspase-3 and PARP cleavage ([8]; HG/Pal, 10 μM, 24 h): strongly counteracted
- basal glucose levels after an overnight fast ([9]; db/db): unchanged
- glucose levels in ipGTT ([9]; db/db): lower glucose levels at all time points measured
- AUC ipGTT ([9]; insert 8b, individual mice): 30540 and 34635 and 37620 and 33592.5 and 28230 and 32955
- MEAN AUC ipGTT ([9]; insert 8b, mean): 32928.8
- ipGTT ([9]; time after glc 0, MEAN): 167.333 mg/dL
- ipGTT ([9]; time after glc 0, individual mice): 133 mg/dL and 142 mg/dL and 168 mg/dL and 224 mg/dL and 154 mg/dL and 183 mg/dL
- ipGTT ([9]; time after glc 15, MEAN): 424.5 mg/dL
- ipGTT ([9]; time after glc 15, individual mice, 600 mg/dl is maximum reading): 425 mg/dL and 445 mg/dL and 468 mg/dL and 413 mg/dL and 308 mg/dL and 488 mg/dL
- ipGTT ([9]; time after glc 30, MEAN, 600 mg/dl is maximum reading): 520.5 mg/dL
- ipGTT ([9]; time after glc 30, individual mice, 600 mg/dl is maximum reading): 481 mg/dL and ≥ 600 mg/dL and 476 mg/dL and 485 mg/dL
- ipGTT ([9]; time after glc 60, MEAN): 340.167 mg/dL
- ipGTT ([9]; time after glc 60, individual mice): 301 mg/dL and 355 mg/dL and 388 mg/dL and 367 mg/dL and 321 mg/dL and 309 mg/dL
- ipGTT ([9]; time after glc 90, MEAN): 226 mg/dL
- ipGTT ([9]; time after glc 90, individual mice): 221 mg/dL and 183 mg/dL and 280 mg/dL and 259 mg/dL and 141 mg/dL and 272 mg/dL
- ipGTT ([9]; time after glc 120, MEAN): 170.833 mg/dL
- ipGTT ([9]; time after glc 120, individual mice): 191 mg/dL and 139 mg/dL and 210 mg/dL and 133 mg/dL and 213 mg/dL
- thermal stabilization of MST1 in intact cells [10]: MST1 stabilization at 55 °C
